Assay results as given in patent US20250171495A1, “MUTLI-TARGETED SERINE PROTEASE INHIBITORS FOR TREATMENT OF CANCER AND VIRAL INFECTION” (Washington University, priority 2023, published 2025).
pIC50: −log10 of the molar value. Read-outs that look alike come from different tables or passages of the source. Numbered stars: 1 amine (or outer) side, 2 acyl side, 3 side chain; on linkers, the order of the positions; unused ones are H or OH. Square brackets hold non-standard residues; d marks the D form. Peptide text beside a SMILES is read from it. X1 = N=C(N)NCCC[C@H](N[*:1])C(=O)c1nc2ccc(C(=O)[*:2])cc2s1; Phe(4-NO2) = N[C@@H](Cc1ccc([N+](=O)[O-])cc1)C(=O)O

How the values were obtained:
Type in all cases: biochemical
hepsin = biological target: T1, hepsin (Homo sapiens, UniProt P05981); assay: Fluorogenic kinetic enzyme inhibitor assay, hepsin; conditions: read-out: Hepsin IC50
T1 construct: purchased R&D Systems 4776-SE-010

TMPRSS2 = TMPRSS2 (Homo sapiens, UniProt O15393); assay: Fluorogenic kinetic enzyme inhibitor assay, TMPRSS2; parameters: purchased Cusabio Technology CSB-YP023924HU; conditions: read-out: TMPRSS2 IC50
Factor Xa = biological target: T2, Factor Xa (Homo sapiens, UniProt P00742); assay: Fluorogenic assay, Factor Xa; conditions: read-out: Factor Xa IC50
T2 construct: TMPRSS2; Matriptase; Hepsin; HGFA; Thrombin; Factor Xa

matriptase = biological target: T3, matriptase (Homo sapiens, UniProt Q9Y5Y6); assay: Fluorogenic kinetic enzyme inhibitor assay, matriptase
T3 construct: purchased R&D Systems 3946-SEB-010
T3 sequence (Q9Y5Y6 615-855 limits assumed): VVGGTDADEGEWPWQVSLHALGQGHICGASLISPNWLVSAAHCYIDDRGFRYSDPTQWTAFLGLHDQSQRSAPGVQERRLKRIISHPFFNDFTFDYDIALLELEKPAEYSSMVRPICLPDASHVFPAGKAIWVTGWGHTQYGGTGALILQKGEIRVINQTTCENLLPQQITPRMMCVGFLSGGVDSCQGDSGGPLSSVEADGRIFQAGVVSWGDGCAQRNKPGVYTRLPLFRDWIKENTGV

Thrombin = Thrombin (Homo sapiens, UniProt P00734); assay: Fluorogenic assay, thrombin
HGFA = biological target: T4, HGFA (Homo sapiens, UniProt Q04756); assay: Fluorogenic kinetic enzyme inhibitor assay, HGFA; conditions: read-out: HGFA IC50
T4 construct: purchased R&D Systems 1514-SE-010
T4 sequence (Q04756 408-655 limits assumed): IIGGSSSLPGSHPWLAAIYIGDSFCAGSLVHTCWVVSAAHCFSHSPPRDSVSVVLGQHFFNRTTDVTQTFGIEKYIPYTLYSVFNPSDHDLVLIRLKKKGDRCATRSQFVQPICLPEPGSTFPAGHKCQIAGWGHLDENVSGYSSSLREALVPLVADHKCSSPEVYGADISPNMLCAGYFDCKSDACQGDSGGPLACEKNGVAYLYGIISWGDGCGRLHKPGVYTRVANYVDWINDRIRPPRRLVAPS
T4 sequence (Q04756 373-407 partner limits assumed): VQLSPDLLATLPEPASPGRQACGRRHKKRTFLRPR

T1 sequence (P05981 163-417 limits assumed): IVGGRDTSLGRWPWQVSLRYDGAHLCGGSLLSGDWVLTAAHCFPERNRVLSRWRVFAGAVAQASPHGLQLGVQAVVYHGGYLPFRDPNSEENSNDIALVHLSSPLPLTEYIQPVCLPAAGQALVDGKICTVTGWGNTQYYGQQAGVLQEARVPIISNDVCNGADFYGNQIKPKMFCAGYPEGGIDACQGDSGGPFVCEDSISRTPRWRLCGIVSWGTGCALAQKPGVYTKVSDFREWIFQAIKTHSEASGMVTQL
T1 sequence (P05981 1-162 partner limits assumed): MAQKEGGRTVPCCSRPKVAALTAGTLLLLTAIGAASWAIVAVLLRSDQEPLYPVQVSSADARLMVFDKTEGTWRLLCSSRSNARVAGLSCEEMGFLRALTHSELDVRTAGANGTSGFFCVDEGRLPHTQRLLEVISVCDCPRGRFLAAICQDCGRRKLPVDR
T2 sequence (P00742 235-488 limits assumed): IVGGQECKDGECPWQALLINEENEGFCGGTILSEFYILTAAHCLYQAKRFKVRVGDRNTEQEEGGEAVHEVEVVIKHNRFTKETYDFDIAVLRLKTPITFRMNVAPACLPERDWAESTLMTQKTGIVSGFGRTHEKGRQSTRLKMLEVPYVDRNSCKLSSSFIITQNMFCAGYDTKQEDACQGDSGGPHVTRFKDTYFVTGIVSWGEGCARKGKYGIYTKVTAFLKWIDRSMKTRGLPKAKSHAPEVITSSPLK
T2 sequence (P00742 41-179 partner limits assumed): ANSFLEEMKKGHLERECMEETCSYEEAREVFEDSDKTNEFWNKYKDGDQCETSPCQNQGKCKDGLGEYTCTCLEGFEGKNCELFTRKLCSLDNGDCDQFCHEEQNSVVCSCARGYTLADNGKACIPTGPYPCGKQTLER
Sequence of TMPRSS2 (O15393 106-492 limits assumed): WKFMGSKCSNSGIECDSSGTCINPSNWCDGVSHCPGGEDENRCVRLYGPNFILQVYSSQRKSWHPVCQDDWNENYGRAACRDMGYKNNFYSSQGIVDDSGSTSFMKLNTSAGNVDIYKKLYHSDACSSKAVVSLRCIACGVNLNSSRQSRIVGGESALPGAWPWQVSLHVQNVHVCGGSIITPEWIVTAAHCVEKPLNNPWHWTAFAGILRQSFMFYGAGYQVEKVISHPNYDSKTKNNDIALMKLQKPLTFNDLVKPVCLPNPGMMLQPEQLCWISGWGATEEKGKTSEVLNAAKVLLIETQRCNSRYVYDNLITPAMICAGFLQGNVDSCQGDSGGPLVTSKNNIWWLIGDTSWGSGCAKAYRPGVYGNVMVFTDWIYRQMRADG

SMILES	pIC50 (hepsin)	pIC50 (TMPRSS2)	pIC50 (Factor Xa)	pIC50 (matriptase; read-out: Matriptase IC50)	pIC50 (Thrombin)	pIC50 (HGFA)	pIC50 (matriptase)	pIC50 (TMPRSS2; 30 min incubation, Boc-QAR-AMC at Km)	pIC50 (HGFA; 30 min incubation, Boc-QLR-AMC at Km)
N=C(N)NCCC[C@H](NC(=O)[C@H](Cc1ccccc1)NC(=O)[C@H](CCC(N)=O)NC(=O)Cc1ccccc1)C(=O)c1nc2ccccc2s1 [CA1018, N-[(S)-1-[N-(S)-1-[(1,3-benzothiazol-2-yl)carbonyl]-4-guanidinobutylcarbamoyl]-2-phenylethyl](S)-2-(benzylcarbonylamino) glutaramide]	9.19	9.39	6.67	9.00	< 4.70	7.12	–	–	–
N=C(N)NCCC[C@@H](NC(=O)[C@H](Cc1ccccc1)NC(=O)[C@H](CCC(N)=O)NCc1ccccc1)C(=O)c1nc2ccccc2s1 [CA1022-1, N-[(S)-1-[N-(R)-1-[(1,3-benzothiazol-2-yl)carbonyl]-4-guanidinobutylcarbamoyl]-2-phenylethyl](S)-2-benzylaminoglutaramide]	9.08	8.63	6.35	8.06	< 4.70	5.89	–	–	–
N=C(N)NCCC[C@H](NC(=O)[C@H](Cc1ccccc1)NC(=O)[C@H](CCC(N)=O)NCc1ccccc1)C(=O)c1nc2ccccc2s1 [CA1022-2, N-[(S)-1-[N-(S)-1-[(1,3-benzothiazol-2-yl)carbonyl]-4-guanidinobutylcarbamoyl]-2-phenylethyl](S)-2-benzylaminoglutaramide]	9.70	9.00	7.40	8.64	< 4.70	7.30	–	–	–
CC(=O)N[C@@H](CO)C(=O)N[C@H](Cc1c[nH]c2ccccc12)C(=O)N[C@@H](CC(C)C)C(=O)N[C@@H](CCCNC(=N)N)C(=O)c1nc2ccc(C(=O)N[C@H](C(N)=O)C(C)C)cc2s1 [JH1114, N-[(S)-1-carbamoyl-2-methylpropyl]-2-[(S)-2-[(S)-2-[(R)-2-[(S)-2-acetylamino-3-hydroxypropionylamino]-3-(3-indolyl)propionylamino]-4-methylvalerylamino]-5-guanidinovaleryl]-1,3-benzothiazole-6-carboxamide] (Ac-S[dW]L[X1]V-NH2)	8.74	–	5.89	–	5.41	7.24	6.64	–	–
CC(=O)N[C@H](Cc1c[nH]c2ccccc12)C(=O)N[C@@H](CCCCNC(=N)N)C(=O)N[C@@H](CCC(C)C)C(=O)N[C@@H](CCCNC(=N)N)C(=O)c1nc2ccccc2s1 [JH1140-2, N-[(S)-1-[(1,3-benzothiazol-2-yl)carbonyl]-4-guanidinobutyl](S)-2-[(S)-1-[(R)-2-acetylamino-3-(3-indolyl)propionylamino]-5-guanidinopentylcarbonylamino]-5-methylhexanamide]	9.35	–	8.04	–	< 4.70	8.32	9.34	–	–
CC(=O)N[C@@H](CCCCNC(=N)N)C(=O)N[C@@H](CCC(C)C)C(=O)N[C@@H](CCCNC(=N)N)C(=O)c1nc2ccccc2s1 [JH1141-2, N-[(S)-1-[(1,3-benzothiazol-2-yl)carbonyl]-4-guanidinobutyl](S)-2-[(S)-1-acetylamino-5-guanidinopentylcarbonylamino]-5-methylhexanamide]	8.94	–	6.92	8.97	< 4.70	7.98	–	–	–
CC(=O)N[C@@H](Cc1cncn1COCc1ccccc1)C(=O)N[C@@H](CCCCNC(=N)N)C(=O)N[C@@H](CCC(C)C)C(=O)N[C@@H](CCCNC(=N)N)C(=O)c1nc2ccccc2s1 [JH1143-2, N-[(S)-1-[(1,3-benzothiazol-2-yl)carbonyl]-4-guanidinobutyl](S)-2-[(S)-1-[(S)-2-acetylamino-3-{1-[(benzyloxy)methyl]-5-imidazolyl}propionylamino]-5-guanidinopentylcarbonylamino]-5-methylhexanamide]	9.14	–	6.75	–	5.79	7.36	9.06	–	–
CC(=O)N[C@@H](CO)C(=O)NCc1cccc(CC(=O)N[C@@H](CC(C)C)C(=O)N[C@@H](CCCNC(=N)N)C(=O)c2nc3ccccc3s2)c1 [MM1132-2, N-[(S)-1-[(1,3-benzothiazol-2-yl)carbonyl]-4-guanidinobutyl](S)-2-{[(m-{[(S)-2-acetylamino-3-hydroxypropionylamino]methyl}phenyl)methyl]carbonylamino}-4-methylvaleramide]	9.49	–	5.72	7.51	5.03	6.68	–	–	–
CC(=O)N[C@@H](CO)C(=O)N[C@@H](Cc1ccc([N+](=O)[O-])cc1)C(=O)N[C@@H](CC(C)C)C(=O)N[C@@H](CCCNC(=N)N)C(=O)c1nc2ccc(C(=O)N[C@H](C(N)=O)C(C)C)cc2s1 [MM1180, N-[(S)-1-carbamoyl-2-methylpropyl]-2-[(S)-2-[(S)-2-[(S)-2-[(S)-2-acetylamino-3-hydroxypropionylamino]-3-(p-nitrophenyl)propionylamino]-4-methylvalerylamino]-5-guanidinovaleryl]-1,3-benzothiazole-6-carboxamide] (Ac-S[Phe(4-NO2)]L[X1]V-NH2)	8.51	–	7.19	–	6.87	6.64	6.88	–	–
CCC(C)[C@H](NC(C)=O)C(=O)N[C@@H](CCC(N)=O)C(=O)N[C@@H](CO)C(=O)N[C@@H](CCCNC(=N)N)C(=O)c1nc2ccccc2s1 (stereo partly drawn) [MM3177, N-[(S)-2-hydroxy-1-[N-(S)-1-[(1,3-benzothiazol-2-yl)carbonyl]-4-guanidinobutylcarbamoyl]ethyl](S)-2-[(2S)-2-acetylamino-3-methylvalerylamino]glutaramide]	8.62	8.34	5.76	–	< 4.70	4.70	–	–	–
CCC(C)[C@H](NC(C)=O)C(=O)N[C@@H](CCC(N)=O)C(=O)N[C@H](C(=O)N[C@@H](CCCNC(=N)N)C(=O)c1nc2ccccc2s1)C(C)O (stereo partly drawn) [MM3186, N-[(1S)-2-hydroxy-1-[N-(S)-1-[(1,3-benzothiazol-2-yl)carbonyl]-4-guanidinobutylcarbamoyl]propyl](S)-2-[(2S)-2-acetylamino-3-methylvalerylamino]glutaramide]	–	9.76	< 4.70	–	< 4.70	4.74	7.81	–	–
CC(=O)N[C@H](Cc1c[nH]c2ccccc12)C(=O)N[C@@H](Cc1ccccc1)C(=O)N[C@@H](CCCNC(=N)N)C(=O)c1nc2ccc(C(=O)O)cc2s1 [PK-1-93, 2-[(S)-2-[(S)-2-[(R)-2-acetylamino-3-(3-indolyl)propionylamino]-3-phenylpropionylamino]-5-guanidinovaleryl]-1,3-benzothiazole-6-carboxylic acid]	8.70	–	7.52	6.87	4.70	7.02	–	–	–
CC(=O)N[C@H]1Cc2cn(nn2)CCCC[C@H](C(=O)N[C@@H](CCCNC(=N)N)C(=O)c2nc3ccccc3s2)NC(=O)[C@H](CC(C)C)NC1=O [VD4090, N-[(S)-1-[(1,3-benzothiazol-2-yl)carbonyl]-4-guanidinobutyl]-(6R,9S,12S)-12-acetylamino-9-isobutyl-8,11-dioxo-1,7,10,15,16-pentaazabicyclo[12.2.1]heptadeca-14(17),15-diene-6-carboxamide]	–	–	5.37	–	< 4.70	–	–	8.38	5.51
CC(=O)N[C@H]1CCCCn2cc(nn2)C[C@H](C(=O)N[C@H](CCCNC(=N)N)C(=O)c2nc3ccccc3s2)NC(=O)[C@H](CC(C)C)NC1=O [VD4118A, N-[(R)-1-[(1,3-benzothiazol-2-yl)carbonyl]-4-guanidinobutyl]-(6S,9S,12R)-6-acetylamino-9-isobutyl-7,10-dioxo-1,8,11,15,16-pentaazabicyclo[12.2.1]heptadeca-14(17),15-diene-12-carboxamide]	6.93	–	5.71	–	< 4.70	4.81	7.71	–	–
CC(=O)N[C@H]1Cc2ccc(cc2)OCCCC[C@@H](C(=O)N[C@H](CCCNC(=N)N)C(=O)c2nc3ccccc3s2)NC(=O)[C@@H](Cc2c[nH]c3ccccc23)NC1=O [VD4162A, N-[(R)-1-[(1,3-benzothiazol-2-yl)carbonyl]-4-guanidinobutyl]-(7S,10R,13S)-13-acetylamino-10-[(3-indolyl)methyl]-9,12-dioxo-2-oxa-8,11-diazabicyclo[13.2.2]nonadeca-1(17),15,18-triene-7-carboxamide]	8.52	–	5.13	–	< 4.70	7.28	7.51	–	–
